Experimental data reported in article PMC12145819, “Challenging activity and signaling bias in tachykinin NK1 and NK2 receptors by truncated neuropeptides” (The Journal of Biological Chemistry, 2025).
No end group written: not given here.

Legend:
NK2R WT (human TACR2) [1] = target: T1, NK2R WT (human TACR2) (Homo sapiens, UniProt P21452); assay: IP3 accumulation assay (Gq activation), NK2R; assay type: cell-based
T1 construct: host or cells: COS7 cells, transient calcium-precipitation transfection
T1 sequence (P21452 1-398): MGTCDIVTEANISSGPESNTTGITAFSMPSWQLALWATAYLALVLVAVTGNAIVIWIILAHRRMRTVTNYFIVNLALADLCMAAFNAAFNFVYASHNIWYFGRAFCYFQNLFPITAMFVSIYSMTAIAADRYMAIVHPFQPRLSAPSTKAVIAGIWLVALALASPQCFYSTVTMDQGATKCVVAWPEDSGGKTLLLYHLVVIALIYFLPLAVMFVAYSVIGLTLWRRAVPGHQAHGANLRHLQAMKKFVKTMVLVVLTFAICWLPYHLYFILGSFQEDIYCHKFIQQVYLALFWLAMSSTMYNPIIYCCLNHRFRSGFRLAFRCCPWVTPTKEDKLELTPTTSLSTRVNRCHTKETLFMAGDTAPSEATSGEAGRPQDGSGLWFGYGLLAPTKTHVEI
Description: (§1) COS7 cells were plated in either clear- or white- or white with clear bottom 96-well plates that were coated with poly-D-lysine (Sigma-Aldrich) 30 min prior to cell seeding (20.000 cells/well). The following day plates were transiently transfected using calcium precipitation with 200 ng/well DNA of receptor DNA and for the cAMP assays a 1000 ng/well of CAMYEL in a culture medium with the addition of 100 μM (final concentration) chloroquine. Transfection was stopped 5 h later with the addition of a fresh maintenance medium.
(§2) COS7 cells seeded in clear 96-well plates were incubated with 0.5 μCi/ml myo [3H]inositol (PerkinElmer) in 100 μl growth medium overnight following the transfection. The subsequent day cells were washed twice with 200 μl/well HBSS (GIBCO, Life Technologies) and preincubated for 5 min at 37 °C with 100 μl/well HBSS buffer supplemented with 10 mM LiCl. Ligand addition was followed by 90 min incubation at 37 °C. To stop ligand incubation, cells were lysed with 40 μl 10 mM formic acid followed by 30 min incubation on ice. Subsequently, 35 μl of the lysate was transferred to white 96-well plates together with 60 μl of 1:8 diluted YSi SPA scintillation beads (PerkinElmer). Plates were sealed and vigorously shaken for 15 min followed by 5 min centrifugation at 1500 rpm. Measurements (scintillation) were recorded on a MicroBeta (PerkinElmer) after a 4 h delay, and determinations were made in duplicates.
(§3) In both assay formats, the measurement window could shift between runs without affecting the overall curve shape. Emax and Emin values often shifted uniformly upward or downward, while the sigmoidal profile remained consistent, contributing to increased standard deviation.
(§4) All concentration-response curves have been calculated using Prism 10 software (GraphPad Software, www.graphpad.com) nonlinear regression with four parameters. SD is used for concentration-response curves to illustrate variability in experimental measurements. However, when comparing LogEC50 values, standard error of the mean (SEM) is used to reflect the precision of the estimated means and facilitate statistical comparisons. This approach ensures an accurate representation of variability while maintaining appropriate statistical rigor for hypothesis testing. All data consist of two technical replicates from three biological replicates. Statistical significance of differences between LogEC50 values (based on SEM estimates) was assessed using an unpaired two-tailed t test. Normal distribution of LogEC50 values was confirmed by the Shapiro–Wilk test. p-Values were represented using asterisks: ns for p > 0.05 (not significant), ∗ for p ≤ 0.05, ∗∗ for p ≤ 0.01, ∗∗∗ for p ≤ 0.001, and ∗∗∗∗ for p ≤ 0.0001.

NK2R WT (human TACR2) [2] = target: T1, NK2R WT (human TACR2); assay: BRET-based cAMP assay (Gs activation), NK2R; assay type: cell-based
Description: (§5) All receptor constructs of WT and modified human TACR1 and TACR2 were inserted into the pcDNA3.1(+)-C-DYK vector (Genscript) whereas CAMYEL ([34]) was expressed via pcDNA3.1(+) vector.
COS7 cells were tested monthly for mycoplasma and kept negative. COS7 cells were plated in either clear- or white- or white with clear bottom 96-well plates that were coated with poly-D-lysine (Sigma-Aldrich) 30 min prior to cell seeding (20.000 cells/well). The following day plates were transiently transfected using calcium precipitation with 200 ng/well DNA of receptor DNA and for the cAMP assays a 1000 ng/well of CAMYEL in a culture medium with the addition of 100 μM (final concentration) chloroquine. Transfection was stopped 5 h later with the addition of a fresh maintenance medium.
(§6) The intracellular level of cAMP was monitored in real-time using BRET. This was achieved by implementing a construct consisting of a cAMP binding protein (exchange protein activated by cAMP (EPAC)) which has been flanked by a BRET pair consisting of Renilla luciferase (Rluc) and yellow fluorescent protein (YFP). This construct is called CAMYEL (cAMP sensor using YFP-Epac-Rluc) and enables cAMP production to be sensed as Epac change conformations in response to increasing levels of cAMP, ultimately resulting in a loss of BRET signal.
On the day of the assay, white 96-well plates with COS7 cells were washed twice with 100 μl/well Hank’s balanced salt solution (HBSS) (GIBCO, Life Technologies) and preincubated for 30 min at 37 °C with 85 μl HBSS. Luciferase substrate coelenterazine h (Thermo Fisher Scientific) was added to a final concentration of 5 μM, and a baseline measurement was taken after 5 min. […] Determinations were made in minimum duplicates.
as §3, §4

[3] = test system: NK1R-R177 mutated to alanine; conditions: NK1R-R177 to alanine vs WT; cited from earlier work
[4] = test system: NK1R-Q24 mutated to asparagine; conditions: NK1R-Q24 to asparagine vs WT; cited from earlier work
[5] = test system: NK1R-R177 mutated to lysine; conditions: NK1R-R177 to lysine vs WT; cited from earlier work
NK1R WT (human TACR1) [6] = target: T2, NK1R WT (human TACR1) (Homo sapiens, UniProt P25103); assay: IP3 accumulation assay (Gq activation), NK1R; assay type: cell-based
T2 construct: host or cells: COS7 cells, transient calcium-precipitation transfection
T2 sequence (P25103 whole entry): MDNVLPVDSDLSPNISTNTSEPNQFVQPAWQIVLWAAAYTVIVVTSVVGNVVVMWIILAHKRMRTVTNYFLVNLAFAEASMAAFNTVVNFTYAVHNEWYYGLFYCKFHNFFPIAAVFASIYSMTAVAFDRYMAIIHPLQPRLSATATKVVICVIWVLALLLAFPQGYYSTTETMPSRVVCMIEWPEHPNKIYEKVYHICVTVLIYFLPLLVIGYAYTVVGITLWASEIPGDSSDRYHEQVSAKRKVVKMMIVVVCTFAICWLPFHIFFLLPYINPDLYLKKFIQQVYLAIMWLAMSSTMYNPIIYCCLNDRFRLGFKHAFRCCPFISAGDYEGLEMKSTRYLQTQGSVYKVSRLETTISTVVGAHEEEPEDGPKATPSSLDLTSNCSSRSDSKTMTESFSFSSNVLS
Description: as §1, §2, §3, §4

NK1R WT (human TACR1) [7] = target: T2, NK1R WT (human TACR1); assay: BRET-based cAMP assay (Gs activation), NK1R; assay type: cell-based
Description: as §5
COS7 cells were maintained in Dulbecco's modified Eagle's medium 1885 with GlutaMAX supplemented with 10% fetal bovine serum (Sigma-Aldrich), 100 units/ml penicillin and 100 μg/ml streptomycin at 37 °C with 10% CO2. […] COS7 cells were plated in either clear- or white- or white with clear bottom 96-well plates that were coated with poly-D-lysine (Sigma-Aldrich) 30 min prior to cell seeding (20.000 cells/well). The following day plates were transiently transfected using calcium precipitation with 200 ng/well DNA of receptor DNA and for the cAMP assays a 1000 ng/well of CAMYEL in a culture medium with the addition of 100 μM (final concentration) chloroquine. Transfection was stopped 5 h later with the addition of a fresh maintenance medium.
as §6
On the day of the assay, white 96-well plates with COS7 cells were washed twice with 100 μl/well Hank’s balanced salt solution (HBSS) (GIBCO, Life Technologies) and preincubated for 30 min at 37 °C with 85 μl HBSS. Luciferase substrate coelenterazine h (Thermo Fisher Scientific) was added to a final concentration of 5 μM, and a baseline measurement was taken after 5 min. […] The BRET signal was calculated as the ratio of emission intensity at 535 nm (citrine) to the emission intensity at 475 nm (luciferase). Determinations were made in minimum duplicates.
as §3
All concentration-response curves have been calculated using Prism 10 software (GraphPad Software, www.graphpad.com) nonlinear regression with four parameters. SD is used for concentration-response curves to illustrate variability in experimental measurements. However, when comparing LogEC50 values, standard error of the mean (SEM) is used to reflect the precision of the estimated means and facilitate statistical comparisons. […] All data consist of two technical replicates from three biological replicates. Statistical significance of differences between LogEC50 values (based on SEM estimates) was assessed using an unpaired two-tailed t test. Normal distribution of LogEC50 values was confirmed by the Shapiro–Wilk test. p-Values were represented using asterisks: ns for p > 0.05 (not significant), ∗ for p ≤ 0.05, ∗∗ for p ≤ 0.01, ∗∗∗ for p ≤ 0.001, and ∗∗∗∗ for p ≤ 0.0001.

NK1R [8] = conditions: cited from earlier work
NK1R [9] = conditions: cited from earlier work; remark: listed apart in the source
[10] = Fig. 6B, given as log(EC50), transfected COS7 cells, three independent experiments in duplicates, read-out: log(EC50), IP3 - NK2R WT (converted)
[11] = Fig. 6A, given as log(EC50), transfected COS7 cells, three independent experiments in duplicates, read-out: log(EC50), cAMP - NK2R WT (converted)
[12] = read-out: log(EC50), IP3 - NK1R WT (converted)
[13] = Fig. 2A, acetylated analogs, given as log(EC50), transfected COS7 cells, three independent experiments in duplicates
[14] = read-out: log(EC50), cAMP - NK1R WT (converted)
[15] = Fig. 2D, analogs with free N termini, given as log(EC50), transfected COS7 cells, three independent experiments in duplicates
[16] = Fig. 2C, analogs with free N termini, given as log(EC50), transfected COS7 cells, three independent experiments in duplicates

Work on `CSCC[C@H](NC(=O)[C@H](CC(C)C)NC(=O)CNC(=O)[C@@H](NC(=O)[C@H](Cc1ccccc1)NC(=O)[C@H](CO)NC(=O)[C@H](CC(=O)O)NC(C)=O)C(C)C)C(N)=O` [Ac-DSFVGLM-NH2] yielded an EC50 (NK2R WT (human TACR2) [1]; [10]) of 20 nM and an EC50 (NK2R WT (human TACR2) [2]; [11]) of 50.1 nM.
With `CSCC[C@H](NC(=O)[C@H](CC(C)C)NC(=O)CNC(=O)[C@@H](NC(=O)[C@H](Cc1ccccc1)NC(=O)[C@H](CO)NC(=O)[C@@H](N)CC(=O)O)C(C)C)C(N)=O` [DSFVGLM-NH2] the EC50 (NK2R WT (human TACR2) [1]) was 10 nM, the EC50 (NK2R WT (human TACR2) [2]) was 10 nM and the “increase in Gs potency compared to acetylated counterpart” value (NK2R WT (human TACR2) [2]; NK2R, Fig. 6A, analog with a free N terminal) was “five”.
In the case of `CSCC[C@H](NC(=O)[C@H](CC(C)C)NC(=O)CNC(=O)[C@H](Cc1ccccc1)NC(=O)[C@H](Cc1ccccc1)NC(=O)[C@H](CCC(N)=O)NC(=O)[C@H](CCC(N)=O)NC(=O)[C@@H]1CCCN1C(=O)[C@H](CCCCN)NC(=O)[C@@H]1CCCN1C(=O)[C@@H](N)CCCNC(=N)N)C(N)=O` [SP, substance P], the “reduction of binding affinity for SP (factor)” value (from here on “reduction of binding affinity”) [3] is listed as 46, the “reduction of binding affinity” value [4] is listed as “five” and the “reduction of binding affinity” value [5] is listed as 60.
With Ac-QFFGLM-NH2 [Ac-QFFGLM-NH2] the EC50 (NK1R WT (human TACR1) [6]; [12]) was 1.58 nM, the EC50 (NK1R WT (human TACR1) [7]; [13]) was 3.98 nM and the “reduction in Gs potency” value (NK1R WT (human TACR1) [7]; NK1R, relative to SP) was 5.0 fold.
With Ac-QQFFGLM-NH2 [Ac-QQFFGLM-NH2] the EC50 (NK1R WT (human TACR1) [6]; [12]) was 3.16 nM and the EC50 (NK1R WT (human TACR1) [7]; [13]) was 1.26 nM.
With Ac-SFVGLM-NH2 [Ac-SFVGLM-NH2] the EC50 (NK1R WT (human TACR1) [6]; [12]) was 7.94 nM, the EC50 (NK2R WT (human TACR2) [1]; [10]) was 50.1 nM and the EC50 (NK2R WT (human TACR2) [2]; [11]) was 316 nM. It also gave an EC50 (NK1R WT (human TACR1) [7]; [14]) of 200 nM.
In the case of QFFGLM-NH2 [QFFGLM-NH2], the “activity in IP3 accumulation assay (Gq) compared to SP” value (NK1R [8]) is listed as “half activity”, the EC50 (NK1R WT (human TACR1) [6]; [15]) is listed as 12.6 nM and the EC50 (NK1R WT (human TACR1) [6]; Fig. 5A, Gq activation, given as log(EC50), transfected COS7 cells, three independent experiments in duplicates) is listed as 20 nM. For the same compound, the “lower Gq potency” value (NK1R WT (human TACR1) [6]; NK1R, Fig. 5A, compared with acetylated analog and SP) was 15 fold, the EC50 (NK1R WT (human TACR1) [7]; [16]) was 15.8 nM and the “lower activity in BRET-based cAMP assay (Gs) compared to SP” value (NK1R [9]) was 16 fold.
QQFFGLM-NH2 [QQFFGLM-NH2] gave an EC50 (NK1R WT (human TACR1) [6]; [15]) of 5.01 nM and an EC50 (NK1R WT (human TACR1) [7]; [16]) of 7.94 nM.
Compound SFVGLM-NH2 [SFVGLM-NH2] has an EC50 (NK1R WT (human TACR1) [6]; [12]) of 50.1 nM, an EC50 (NK2R WT (human TACR2) [1]; [10]) of 200 nM and an EC50 (NK2R WT (human TACR2) [2]; [11]) of 1580 nM. It also gave an EC50 (NK1R WT (human TACR1) [7]; [14]) of 316 nM.
